Experimental findings from patent publication US20110178070A1, “PI3K/mTOR INHIBITORS” (TAKEDA PHARMACEUTICAL COMPANY LIMITED, priority 2008, published 2011) are described below.

A word on the IC50: it is the concentration that inhibits the measured activity by half.

SMILES strings stand for the structures.

This assay deals with mTOR (Homo sapiens, UniProt P42345). Kind of assay: Z-Lyte biochemical assay, inhibition of mTOR (Example A).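 Note: synthetic Ser/Thr peptide with coumarin–fluorescein FRET pair, phosphorylation protects from protease cleavage, coumarin/fluorescein emission ratio after 400 nm excitation, 1 h kinase reaction, 10-point 3-fold titrations.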 The conditions noted are these: IC50 (nM) mTOR, Table 1; 10 μM ATP.
mTOR, sequence (P42345 1360-2549): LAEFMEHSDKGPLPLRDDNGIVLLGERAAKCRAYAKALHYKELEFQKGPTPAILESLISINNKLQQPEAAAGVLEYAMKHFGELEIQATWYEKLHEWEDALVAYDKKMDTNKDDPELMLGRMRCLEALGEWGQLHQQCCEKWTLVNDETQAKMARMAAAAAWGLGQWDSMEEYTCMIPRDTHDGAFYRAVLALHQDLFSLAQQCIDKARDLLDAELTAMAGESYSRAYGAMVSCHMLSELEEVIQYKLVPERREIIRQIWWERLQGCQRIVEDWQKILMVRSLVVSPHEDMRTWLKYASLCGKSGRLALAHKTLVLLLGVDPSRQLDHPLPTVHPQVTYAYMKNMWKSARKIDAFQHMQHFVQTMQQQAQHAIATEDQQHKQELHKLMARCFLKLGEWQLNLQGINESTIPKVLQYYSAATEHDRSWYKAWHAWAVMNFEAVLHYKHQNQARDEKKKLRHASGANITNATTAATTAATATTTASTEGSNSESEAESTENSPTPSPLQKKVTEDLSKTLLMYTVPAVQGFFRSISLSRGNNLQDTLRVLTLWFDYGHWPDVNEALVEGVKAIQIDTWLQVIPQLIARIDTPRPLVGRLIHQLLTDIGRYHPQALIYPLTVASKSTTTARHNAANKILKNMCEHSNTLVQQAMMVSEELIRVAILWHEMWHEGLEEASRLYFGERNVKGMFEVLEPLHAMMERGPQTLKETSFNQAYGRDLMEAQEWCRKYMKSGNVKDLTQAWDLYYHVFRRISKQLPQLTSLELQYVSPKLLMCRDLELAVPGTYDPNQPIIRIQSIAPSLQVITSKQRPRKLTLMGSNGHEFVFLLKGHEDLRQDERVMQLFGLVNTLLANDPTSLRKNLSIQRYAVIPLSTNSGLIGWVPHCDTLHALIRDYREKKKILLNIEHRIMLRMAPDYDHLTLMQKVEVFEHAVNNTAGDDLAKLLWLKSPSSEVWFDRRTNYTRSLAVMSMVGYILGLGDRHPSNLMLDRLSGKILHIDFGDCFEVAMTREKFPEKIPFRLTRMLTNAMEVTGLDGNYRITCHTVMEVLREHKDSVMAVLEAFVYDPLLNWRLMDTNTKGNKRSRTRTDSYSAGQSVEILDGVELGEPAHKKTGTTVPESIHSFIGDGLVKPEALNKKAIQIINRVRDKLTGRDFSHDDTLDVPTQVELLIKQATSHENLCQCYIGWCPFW
Procedure: The inhibitory property of a compound relative to mTOR catalysis was determined by using the Z-Lyte™ biochemical assay conducted by Invitrogen Corporation (Madison, Wis.), which employs a fluorescence-based, coupled-enzyme format and is based on the differential sensitivity of phosphorylated and non-phosphorylated peptides to proteolytic cleavage. The peptide substrate is labeled with two fluorophores—one at each end—that make up a FRET pair.
In the primary reaction, the kinase transfers the gamma-phosphate of ATP to a single tyrosine, serine or threonine residue in a synthetic FRET-peptide. In the secondary reaction, a site-specific protease recognizes and cleaves non-phosphorylated FRET-peptides. Phosphorylation of FRET-peptides suppresses cleavage by the Development Reagent. Cleavage disrupts FRET between the donor (i.e., coumarin) and acceptor (i.e., fluorescein) fluorophores on the FRET-peptide, whereas uncleaved, phosphorylated FRET-peptides maintain FRET. A ratio metric method, which calculates the ratio (the Emission Ratio) of donor emission to acceptor emission after excitation of the donor fluorophore at 400 nm, is used to quantitate reaction progress, as shown in the equation below.
A significant benefit of this ratio metric method for quantitating reaction progress is the elimination of well-to-well variations in FRET-peptide concentration and signal intensities. […] Both cleaved and uncleaved FRET-peptides contribute to the fluorescence signals and therefore to the Emission Ratio. The extent of phosphorylation of the FRET-peptide can be calculated from the Emission Ratio.
Recombinant human mTOR enzyme (amino acids 1360-2549), GST-tagged, expressed in and purified from insect cells (Invitrogen Corp. Cat. #PV4753; also known as FRAP1) was used for the assay. The 2×FRAP1 (mTOR)/Ser/Thr 11 Peptide Mixture (Invitrogen Corp.) was prepared in buffer containing 50 mM HEPES pH 7.5, 0.01% BRIJ-35, 10 mM MnCl2, 1 mM EGTA, 2 mM DTT, and 0.02% NaN3. The final 10 μL Kinase Reaction consisted of 7.2-58.1 ng FRAP1 (mTOR) and 2 μM Ser/Thr 11 Peptide in buffer containing 50 mM HEPES pH 7.5, 0.01% BRIJ-35, 5 mM MgCl2, 5 mM MnCl2, 1 mM EGTA, 1 mM DTT, and 0.01% NaN3.
Test compounds are screened in 1% DMSO (final) in the well. For 10 point titrations, 3-fold serial dilutions are conducted from the starting concentration. The Ser/Thr 11 Peptide/Kinase Mixture was diluted to a 2× working concentration in buffer containing 50 mM HEPES pH 7.5, 0.01% BRIJ-35, 10 mM MnCl2, 1 mM EGTA, 2 mM DTT, and 0.02% NaN3. The ATP solution was diluted to a 4× working concentration in buffer containing 50 mM HEPES pH 7.5, 0.01% BRIJ-35, 10 mM MgCl2, and 1 mM EGTA.
After the 1 hour Kinase Reaction incubation, 5 μL of a 1:16 dilution of Development Reagent B was added, and the development reaction was allowed to proceed for an additional 1 hour at room temperature. The assay plate was then read on a fluorescence plate reader and the data analyzed as outlined above.
IC50 values were calculated by non-linear least squares curve fitting using XLfit from IDBS to fit the results to model number 205 (sigmoidal dose-response model).
`CC(=O)Nc1nc2ccc(-c3ccc4[nH]ccc4c3)nc2s1` [Example 2, N-(5-(1H-Indol-5-yl)thiazolo[5,4-b]pyridin-2-yl)acetamide] gave a half-maximal inhibitory concentration (IC50) of 100 to 1000 nM.

In turn, `CC(=O)Nc1nc2ccc(-c3ccc4[nH]ncc4c3)nc2s1` [Example 3, N-(5-(1H-Indazol-5-yl)thiazolo[5,4-b]pyridin-2-yl)acetamide] showed a half-maximal inhibitory concentration (IC50) of 100 to 1000 nM.

In turn, `CC(=O)Nc1ccc(-c2ccc3nc(NC(C)=O)sc3n2)cn1` [Example 4, N-(5-(6-Acetamidopyridin-3-yl)thiazolo[5,4-b]pyridin-2-yl)acetamide] displayed a 50% inhibitory concentration (IC50) of 100 to 1000 nM.

In the case of `CNC(=O)c1ccc(-c2ccc3nc(NC(C)=O)sc3n2)cn1` [Example 6, 5-(2-Acetamidothiazolo[5,4-b]pyridin-5-yl)-N-methylpicolinamide], the half-inhibitory concentration (IC50) is 100 to 1000 nM.

`CC(=O)Nc1nc2ccc(-c3cnc(Cl)c(NS(=O)(=O)c4ccccc4)c3)nc2s1` [Example 7, N-(5-(6-Chloro-5-(phenylsulfonamido)pyridin-3-yl)thiazolo[5,4-b]pyridin-2-yl)acetamide] came in with an IC50 of less than 100 nM.

Molecule `CC(=O)Nc1nc2ccc(-c3cnc(Cl)c(NS(C)(=O)=O)c3)nc2s1` [Example 8, N-(5-(6-Chloro-5-(methylsulfonamido)pyridin-3-yl)thiazolo[5,4-b]pyridin-2-yl)acetamide] displayed a half-inhibitory concentration (IC50) of less than 100 nM.

In the case of `CS(=O)(=O)Nc1cc(-c2ccc3nc(NC(=O)C4CC4)sc3n2)cnc1Cl` [Example 9, N-(5-(6-Chloro-5-(methylsulfonamido)pyridin-3-yl)thiazolo[5,4-b]pyridin-2-yl)cyclopropanecarboxamide], the IC50 is less than 100 nM.

The molecule `CC(=O)Nc1nc2ccc(-c3ccccc3)cc2s1` [Example 10, N-(6-Phenylbenzo[d]thiazol-2-yl)acetamide] registered a 50% inhibitory concentration (IC50) of more than 1000 nM.

In the case of `CC(=O)Nc1nc2ccc(-c3cccnc3)cc2s1` [Example 11, N-(6-(Pyridin-3-yl)benzo[d]thiazol-2-yl)acetamide], the half-inhibitory concentration (IC50) was 100 to 1000 nM.

On to `CC(=O)Nc1nc2ccc(-c3ccc4[nH]ccc4c3)cc2s1` [Example 12, N-(6-(1H-Indol-5-yl)benzo[d]thiazol-2-yl)acetamide], for which the IC50 is more than 1000 nM.

`CC(=O)Nc1nc2ccc(-c3ccc(N)cc3)cc2s1` [Example 13, N-(6-(4-Aminophenyl)benzo[d]thiazol-2-yl)acetamide] came in with an IC50 of more than 1000 nM.

`CC(=O)Nc1nc2ccc(-c3ccc4[nH]cc(C=O)c4c3)cc2s1` [Example 15, N-(6-(3-Formyl-1H-indol-5-yl)benzo[d]thiazol-2-yl)acetamide] showed a concentration for half-maximal inhibition (IC50) of less than 100 nM.

`CC(=O)Nc1nc2ccc(-c3ccc4[nH]cc(C(N)=O)c4c3)cc2s1` [Example 17, 5-(2-Acetamidobenzo[d]thiazol-6-yl)-1H-indole-3-carboxamide]: the IC50 is more than 1000 nM.

On to `CC(=O)Nc1nc2ccc(-c3cnc(Cl)c(NS(=O)(=O)c4ccccc4)c3)cc2s1` [Example 18, N-(6-(6-Chloro-5-(phenylsulfonamido)pyridin-3-yl)benzo[d]thiazol-2-yl)acetamide], for which the IC50 was less than 100 nM.

`CC(=O)Nc1nc2ccc(-c3ccc(N)cc3C(F)(F)F)cc2s1` [Example 19, N-(6-(4-Amino-2-(trifluoromethyl)phenyl)benzo[d]thiazol-2-yl)acetamide] registered a 50% inhibitory concentration (IC50) of more than 1000 nM.

`CC(=O)Nc1nc2ccc(-c3cnc(N)cn3)cc2s1` [Example 20, N-(6-(5-Aminopyrazin-2-yl)benzo[d]thiazol-2-yl)acetamide] came in with an IC50 of 100 to 1000 nM.

Molecule `CC(=O)Nc1nc2ccc(-c3ccc4nccn4c3)nc2s1` [Example 22, N-(5-(Imidazo[1,2-a]pyridin-6-yl)thiazolo[5,4-b]pyridin-2-yl)acetamide] displayed an IC50 of 100 to 1000 nM.

In the case of `CC(=O)Nc1nc2ccc(-c3ccc(C#N)nc3)nc2s1` [Example 23, N-(5-(6-Cyanopyridin-3-yl)thiazolo[5,4-b]pyridin-2-yl)acetamide], the concentration for half-maximal inhibition (IC50) lay within 100 to 1000 nM.

`CC(=O)Nc1nc2ccc(-c3cnc4[nH]ccc4c3)nc2s1` [Example 24, N-(5-(1H-Pyrrolo[2,3-b]pyridin-5-yl)thiazolo[5,4-b]pyridin-2-yl)acetamide] yielded a concentration for half-maximal inhibition (IC50) of less than 100 nM.

`CC(=O)Nc1nc2ccc(-c3cnc4cc[nH]c4c3)nc2s1` [Example 25, N-(5-(1H-Pyrrolo[3,2-b]pyridin-6-yl)thiazolo[5,4-b]pyridin-2-yl)acetamide] yielded an IC50 of less than 100 nM.

On to `CONC(=O)c1cccc(-c2ccc3nc(NC(C)=O)sc3n2)c1` [Example 27, 3-(2-Acetamidothiazolo[5,4-b]pyridin-5-yl)-N-methoxybenzamide], for which the IC50 is more than 1000 nM.

`CONC(=O)c1ccc(-c2ccc3nc(NC(C)=O)sc3n2)cc1` [Example 30, 4-(2-Acetamidothiazolo[5,4-b]pyridin-5-yl)-N-methoxybenzamide] had a half-maximal inhibitory concentration (IC50) of 100 to 1000 nM.

In turn, `CC(=O)Nc1nc2ccc(-c3ccc4c(c3)CC(=O)N4)nc2s1` [Example 31, N-(5-(2-oxoindolin-5-yl)thiazolo[5,4-b]pyridin-2-yl)acetamide] registered an IC50 of 100 to 1000 nM.

In turn, `CC(=O)Nc1nc2ccc(-c3ccncc3)nc2s1` [Example 33, N-(5-(Pyridin-4-yl)thiazolo[5,4-b]pyridin-2-yl)acetamide] came in with an IC50 of more than 1000 nM.

In turn, `CC(=O)Nc1nc2ccc(-c3ccccc3N)nc2s1` [Example 34, N-(5-(2-Aminophenyl)thiazolo[5,4-b]pyridin-2-yl)acetamide] registered an IC50 of more than 1000 nM.

The molecule `CNC(=O)c1ccc(-c2ccc3nc(NC(C)=O)sc3n2)cc1` [Example 35, 4-(2-Acetamidothiazolo[5,4-b]pyridin-5-yl)-N-methylbenzamide] gave a concentration for half-maximal inhibition (IC50) of less than 100 nM.

Consider `CC(=O)Nc1ccc(-c2ccc3nc(NC(C)=O)sc3n2)cc1` [Example 36, N-(5-(4-Acetamidophenyl)thiazolo[5,4-b]pyridin-2-yl)acetamide], for which the IC50 fell in the range of 100 to 1000 nM.

`CC(=O)Nc1nc2ccc(-c3ccc(C(=O)NC4CC4)cc3)nc2s1` [Example 37, 4-(2-Acetamidothiazolo[5,4-b]pyridin-5-yl)-N-cyclopropylbenzamide] displayed an IC50 of 100 to 1000 nM.

As to `CC(=O)Nc1nc2ccc(-c3ccc(C(N)=O)cc3)nc2s1` [Example 38, 4-(2-Acetamidothiazolo[5,4-b]pyridin-5-yl)benzamide], the half-inhibitory concentration (IC50) was less than 100 nM.

For `CC(=O)Nc1ccc(-c2ccc3nc(NC(C)=O)sc3c2)cc1` [Example 39, N-(4-(2-Acetamidobenzo[d]thiazol-6-yl)phenyl)acetamide], the IC50 was 100 to 1000 nM.

`CNC(=O)c1cccc(-c2ccc3nc(NC(C)=O)sc3c2)c1` [Example 40, 3-(2-Acetamidobenzo[d]thiazol-6-yl)-N-methylbenzamide] gave an IC50 of more than 1000 nM.

Take `CC(=O)Nc1nc2ccc(-c3ccc(-c4nnc[nH]4)cc3)nc2s1` [Example 42, N-(5-(4-(4H-1,2,4-Triazol-3-yl)phenyl)thiazolo[5,4-b]pyridin-2-yl)acetamide]: the half-inhibitory concentration (IC50) is less than 100 nM.

In turn, `CCS(=O)(=O)Nc1cc(-c2ccc3nc(NC(C)=O)sc3n2)cnc1Cl` [Example 47, N-(5-(6-Chloro-5-(ethylsulfonamido)pyridin-3-yl)thiazolo[5,4-b]pyridin-2-yl)acetamide] returned an IC50 of less than 100 nM.

As for `CC(=O)Nc1nc2ccc(-c3cnc(Cl)c(NS(C)(=O)=O)c3)cc2s1` [Example 48, N-(6-(6-Chloro-5-(methylsulfonamido)pyridin-3-yl)benzo[d]thiazol-2-yl)acetamide], the IC50 was less than 100 nM.
